Experimental data taken from patent publication US20260248799A1, “COMBINATIONS OF RETINALDEHYDE DEHYDROGENASE 1 (RALDH1) INHIBITORS AND IMMUNOSTIMULATORS AND METHODS USING SAME” (The Trustees of the University of Pennsylvania, priority 2023, published 2026).
Entries after “also recorded” stand apart in the source; their conditions may differ. Read-outs that look alike come from different tables or passages of the source. Values belong to the compound of their own block, whether it stands above or below them.

Tests used:
[1] = test system: SNU398 cells; experiment: In vitro proliferation and viability of human HCC cell lines; assay type: cell-based
Protocol: FIG. 20D: LC-MS for ATRA on Hepa1-6 (mouse HCC cell line) or SNU398 (human HCC cell line). […] Two independent experiments were performed with at least three replicates per experimental group. Unpaired t test, two-tailed. *, P<0.05; **, P<0.01; ***, P<0.001. […] Cell proliferation was measured by counting live cell numbers at each time point. […] Cell proliferation was measured by counting live cell numbers at each time point.
Cell viability was measured by flow cytometry (FCM) with 7-AAD staining (Y-axis indicates percentage of 7-AAD negative cells).
1×10^4~2×10^5 of Huh7, Huh1, Hepa 1-6, and Hep55 tumor cells were plated in triplicate in 48-well plates or 6-well plates. Viable cell numbers were counted every day for three to four days.

[2] = test system: murine HCC cell line (Hepa1-6); experiment: AldeRed assay in Hepa1-6 cells; assay type: cell-based, mouse
Protocol: Cultures of tumor cells or primary monocyte-derived cells were treated with C86, C91, C99, BMS 493 (Tocris, 3509) or Win 18446 (Tocris, 4736) at a time and concentration indicated in corresponding figure legends.
(§1) The AldeRed assay (EMD Millipore) was performed according to manufacturer's instructions to identify cells with ALDH activity. In brief, single-cell suspensions of Huh7, Huh1, SNU449, SNU398, HEP3B, PLC, Hepa 1-6, Hep55, and AL458A cultured cells or single-cell suspension generated from enzymatic digestion of tumors generated from transplantation of these cells in mice (as indicated in figure legends) were incubated with a fluorescent and non-toxic ALDH substrate (AldeRed 588-A); the fluorescent product accumulates in cells proportional to their ALDH activity. The amount of fluorescence produced is measured by flow cytometry. The ALDH inhibitor diethylaminobenzaldehyde (DEAB, provided with the AldeRed assay kit) was used as a negative control for background fluorescence assessment.

[3] = test system: SNU398 human HCC cells; experiment: AldeRed (Aldefluor) assay in SNU398 cells; assay type: cell-based
Protocol: as §1
The Aldefluor assay has been used to identify and isolate cells with high ALDH activities. This assay is based on the principle that ALDH can convert the ALDH-substrate, Bodipy-aminoacetaldehyde (BAAA) into Bodipy-aminoacetate (BAA) which is retained inside the cells. BAAA is uncharged and can diffuse freely into intact viable cells, however BAA cannot cross the membrane due to its net negative charge, which makes remain in the cells and the assay buffer prevents efflux of the BAA from the cells. Therefore, the amount of BAA fluorescence in cells is proportional to ALDH activity and can be measured using a flow cytometer. A specific inhibitor of ALDH, diethylaminobenzaldehyde (DEAB), is used for background fluorescence control.

[4] = Pharmacokinetics IV and PO in CD-1 mice, plasma; assay type: in vivo; details: mouse plasma
Description: The PK studies were done at NIH or a commercial CRO—Pharmacon using their in-house standard protocol. […] For C99, IV and PO, performed at NIH using CD-1 mice; formulation: 20% HPbCD in saline.

[5] = test system: SNU398 cells; experiment: RT-qPCR of Raldh1, Raldh2 and Raldh3 transcripts in SNU398 cells; assay type: cell-based, human; details: SNU398, 24 hours
Protocol: FIG. 21A: Transcript levels (RT-qPCR) of Raldh1, Raldh2 and Raldh3 in SNU398 cells treated with different concentrations of C86 or C91 for 24 hours. FIG. 21B: Homology modeling identifies differences in amino acid residues between human and murine RALDH1 at sites predicted to bind RALDH1-INH. FIG. 21C: SNU398 cells were treated with various concentrations of C86 or C91 for 24 hours. Cell viability was measured by flow cytometry (FCM) with 7-AAD staining (Y-axis indicates percentage of 7-AAD negative cells).
Total RNA from mouse tissue samples and in vitro cultured cells was isolated using GenElute Mammalian Total RNA Miniprep Kit (Sigma) following the manufacturer's protocol. Total RNA from human FFPE samples was isolated by using Quick-RNA FFPE Miniprep Kit (Zymo Research) using the manufacturer's protocol. 1000 ng of RNA was used for reverse transcription using High Capacity RNA to cDNA Kit (Life Technologies). The cDNA product was 10× diluted. 2.5 μL of this cDNA was used for qPCR for each sample. Three or more replicates were used for each reaction. […] Expression fold was calculated as 2^−(CT target gene−CT housekeeping gene). Quantitative PCRs were run on a Viia 7 real time PCR system (ThermoFisher). The following target and housekeeping genes were measured using the commercially available TaqMan probes (ThermoFisher): […]

[6] = mouse, in vivo
Protocol: Male CD1 or C57BL/6J mice between 6 and 8 weeks old and weighing approximately 20 to 30 grams were dosed with compound 86, compound 91, and compound 99 at 2 mg/kg (IV), 10 mg/kg (PO), and 10 or 30 mg/kg (IP). The compounds were formulated using a 20% hydroxypropyl-beta-cyclodextrin (HPbCD) solution in saline, was made on the day of dosing or directly prior to dosing. Each treatment group consisted of three mice, and plasma was collected at 5 minutes, 15 minutes, 30 minutes, 1 hour, 2 hours, 4 hours, 8 hours, 12 hours, and 24 hours post-dose for IV administration and at 15 minutes, 30 minutes, 1 hour, 2 hours, 4 hours, 8 hours, 12 hours, and 24 hours post-dose for PO administration. Approximately 0.025 mL of blood was collected from the dorsal metatarsal vein at each time point. […] Plasma samples were then stored in polypropylene tubes, quickly frozen, and kept at −75° C. until analyzed by LC/MS/MS. The following pharmacokinetic parameters were measured: Terminal half-life (T½), Concentration at immediately after injection (C0), Maximum concentration (Cmax), Time to reach max concentration (Tmax), Clearance (CL), Volume of distribution (Vd), Area under the curve (AUClast), and bioavailability (% F). Animals were also monitored during the in-life phase by once daily cage side observations; any adverse clinical signs were noted as part of the PK report.

[7] = test system: human RALDH isozymes; experiment: IC50 on human RALDH isozymes (FIG. 29A); assay type: biochemical
[8] = test system: Hepa 1-6 tumors; experiment: Hepa 1-6 tumors in mice; assay type: in vivo, mouse
Protocol: FIGS. 28A-28G: C99 inhibits murine RALDH1 and suppresses murine HCC growth. FIG. 28A: AldeRed assay was performed on Hepa1-6 (murine HCC, left graph) and SNU398 (human HCC, right graph) cells with or without different concentration of C99 (x-axis). Shown is the percentage of AldeRed-positive cells (y-axis) after 24 hours exposure to C99. Murine RALDH1 is sensitive to C99. FIG. 28B: Hepa1-6 cells were treated with different concentrations of C99 in vitro and the number of viable cells were counted at different time points. […] FIG. 28C: C57BL6/J mice were implanted subcutaneously with Hepa1-6 cells and the tumor-bearing mice. To prevent spontaneous rejection of this cell line, mice were treated with anti-CD3. Once the tumors reached around 50 mm^3 size, mice were treated with C86 or C99 (i.p., 20 mg/kg) every day. […] C99, but not C86, suppresses murine HCC growth. Two independent experiments were performed with at least three replicates per experimental group. Unpaired t test, two-tailed. FIG. 28D: Tumors in (FIG. 28C) were harvested at endpoint, single-cell suspension generated, and AldeRed assay was performed along with surface staining with immune cell markers. Shown is the percentage of AldeRed-positive cells in nonleukocytes (CD45 negative, mostly tumor cells) under the different treatment conditions. Two independent experiments were performed with at least three replicates per experimental group. Unpaired t test, two-tailed. FIG. 28E: FCS base frequency of Macrophages (F4/80^+ cells) within CD45^+ leukocytes in tumor tissues from experiment outlined in (FIGS. 28C-28D). Two independent experiments were performed with at least three replicates per experimental group. Unpaired t test, two-tailed. FIG. 28F: Hepa1-6 tumor-bearing NU/J mice were treated with chlodronate liposomes (CloLipo) and/or C86/C99. CloLipo treatment suppresses tumor growth and renders tumors insensitive to C99. Two independent experiments were performed with at least three replicates per experimental group. Unpaired t test, two-tailed. FIG. 28G: The murine fibrosarcoma (FS) cell line was implanted subcutaneously into C57BL6/J mice. Mice were treated with 25 mg/kg of C-99 or vehicle everyday starting one day after tumor cell transplantation. *, P<0.05; **, P<0.01; ***, P<0.001; ns, not significant.
(§2) Cultured Huh7, Huh1, Hepa 1-6, Hep55, and FS (as indicated in figure legends) tumor cells were detached using 0.25% trypsin (Gibco, catalog #25200056), washed once with 1×PBS, and counted before implantation. 3~6×10^6 tumor cells were implanted subcutaneously (s.c.) into shaved flanks of recipient mice. Tumor dimensions were measured using a caliper starting at the day indicated in the accompanying figure legend and every two to three days thereafter; volume was calculated by using formula Length*Width^2/2. Tumor volumes of 2,000 mm^3, tumor length of 2 cm or tumor ulceration were used as endpoints for survival analyses.
To deplete T cells, 200 μg of mouse CD3-specific antibody (clone 17A2) was administered i.p. starting three days before tumor implantation and repeated every three to four days until mouse sacrifice. To deplete macrophages, 200 μL of clodronate liposome (CloLipo) or PBS-liposome (CtrlLipo) (both Liposoma) was administered i.p. starting three days prior to tumor implantation and repeated every four days until mouse sacrifice. Macrophage depletion efficacy in spleen and within tumors was confirmed by flow cytometry using canonical macrophage marker F4/80. […]

[9] = test system: murine fibrosarcoma (FS) cell line; experiment: FS murine fibrosarcoma in C57BL6/J mice; assay type: in vivo, mouse; details: 25 mg/kg everyday
Protocol: FIGS. 28A-28G: C99 inhibits murine RALDH1 and suppresses murine HCC growth. FIG. 28A: AldeRed assay was performed on Hepa1-6 (murine HCC, left graph) and SNU398 (human HCC, right graph) cells with or without different concentration of C99 (x-axis). Shown is the percentage of AldeRed-positive cells (y-axis) after 24 hours exposure to C99. Murine RALDH1 is sensitive to C99. FIG. 28B: Hepa1-6 cells were treated with different concentrations of C99 in vitro and the number of viable cells were counted at different time points. […] FIG. 28C: C57BL6/J mice were implanted subcutaneously with Hepa1-6 cells and the tumor-bearing mice. To prevent spontaneous rejection of this cell line, mice were treated with anti-CD3. Once the tumors reached around 50 mm^3 size, mice were treated with C86 or C99 (i.p., 20 mg/kg) every day. […] C99, but not C86, suppresses murine HCC growth. Two independent experiments were performed with at least three replicates per experimental group. […]
as §2, with “3~6×10^6 tumor cells were implanted subcutaneously (s.c.) into shaved flanks of recipient mice.” left out, “Tumor volumes of 2,000 mm^3, tumor length of 2 cm or tumor ulceration were used as endpoints for survival analyses.” left out

[10] = test system: Hepa 1-6 cells; experiment: In vitro proliferation and viability of Hepa 1-6 cells; assay type: cell-based, mouse; details: murine HCC cell line Hepa 1-6
[11] = intravenous administration, 2 mg/kg
[12] = male, CD-1, intravenous administration, 2 mg/kg
[13] = male, CD-1, oral administration, 10 mg/kg

SMILES: CS(=O)(=O)N1CCN(C(=O)c2cnc3ccc(F)cc3c2-c2ccc(C3(C#N)CC3)cc2)CC1 [Compound C-91, 1-(4-(6-fluoro-3-(4-(methylsulfonyl)piperazine-1-carbonyl)quinolin-4-yl)phenyl)cyclopropane-1-carbonitrile]
HCC cell growth in vitro ([1]; SNU398, 1, 10, 100 and 1000 nM): did not inhibit HCC cell growth in vitro | cell death / cell viability in human HCC cell lines ([1]; live cell counts over 3 days, 7-AAD staining 24 hours): not due to increased cell death or reduced cell viability | AldeRed fluorescence ([2]; murine HCC cell line Hepa1-6, 24 hours): no change in AldeRed fluorescence; also recorded: failed to reduce AldeRed fluorescence | RALDH activity, Aldered assay, in HCC cells ([3]; FIGS. 7-8): significantly reduced RALDH activity | RALDH activity as detected by Aldered (Aldefluor) assay ([3]; SNU398 cells in vitro, 100 nM, DMSO control): abrogated | AUC0-∞ [4, 11]: 1830 ng·h/mL | Cmax [4, 11]: 1997 ng/mL | Vss [4, 11]: 1.4 L/kg | AUC0-∞ ([4]; oral administration, 10 mg/kg): 6980 ng·h/mL | Cmax ([4]; oral administration, 10 mg/kg): 1530 ng/mL | F ([4]; oral administration, 10 mg/kg): 76% | transcription of other RALDH isozymes [5]: did not lead to compensatory increases in transcription | signs of toxicity [6]: no signs of toxicity have been observed

AUC(0-inf) [4, 12]: 37 ng·h/mL | half-life [4, 12]: 6 min | clearance ([4]; male, CD-1, intravenous administration, 2 mg/kg, read-out: CLp): 887 mL/min/kg | Cmax ([4]; male, CD-1, intravenous administration, 2 mg/kg, read-out: Cmax): 117 ng/mL | Vd ([4]; male, CD-1, intravenous administration, 2 mg/kg, read-out: Vss): 2.7 L/kg | AUC(0-inf) [4, 13]: 11 ng·h/mL | half-life [4, 13]: 30 min | Cmax ([4]; male, CD-1, oral administration, 10 mg/kg, read-out: Cmax): 16 ng/mL | F ([4]; oral administration, 10 mg/kg): 6.3% | IC50 relative to C86 [7]: significantly greater than that of C86
SMILES: C=CS(=O)(=O)N1CCN(c2c(C(=O)N3CCN(S(C)(=O)=O)CC3)cnc3ccc(F)cc23)CC1 [Compound C-99, (6-fluoro-4-(4-(vinylsulfonyl)piperazin-1-yl)quinolin-3-yl)(4-(methylsulfonyl)piperazin-1-yl)methanone]
RALDH1 activity (AldeRed-positive cells) ([2]; murine HCC cell line, 24 hours exposure): suppressed RALDH1 activity | concentration range suppressing RALDH1 activity ([3]; AldeRed assay, FIG. 28A and FIG. 20A): micromolar | RALDH1 activity (AldeRed-positive cells) ([3]; human HCC cell line, 24 hours exposure): suppressed RALDH1 activity | sensitivity of TAM-depleted tumors to treatment ([8]; Hepa 1-6, CloLipo-treated): insensitive to C99 treatment | tumor growth in vivo ([8]; Hepa 1-6 in C57BL6/J mice treated with anti-CD3, i.p., 20 mg/kg every day): significantly suppressed tumor growth in vivo | frequency of TAMs within the TME ([8]; Hepa 1-6 tumors at endpoint): reduced | AldeRed activity in tumor cells ([8]; Hepa 1-6 tumors at endpoint, CD45 negative cells): reduced AldeRed activity in tumor cells | fibrosarcoma growth [9]: did not suppress fibrosarcoma growth | proliferation or viability in vitro [10]: did not reduce proliferation or viability
